For one compound, EC50 results are on record in article doi:10.1101/2024.12.01.626272v1 (biorxiv, 2024).

The test addresses T1, olaAHR2a (Oryzias latipes, UniProt A0A2I4U6J3).
T1 sequence (A0A2I4U6J3 1-904): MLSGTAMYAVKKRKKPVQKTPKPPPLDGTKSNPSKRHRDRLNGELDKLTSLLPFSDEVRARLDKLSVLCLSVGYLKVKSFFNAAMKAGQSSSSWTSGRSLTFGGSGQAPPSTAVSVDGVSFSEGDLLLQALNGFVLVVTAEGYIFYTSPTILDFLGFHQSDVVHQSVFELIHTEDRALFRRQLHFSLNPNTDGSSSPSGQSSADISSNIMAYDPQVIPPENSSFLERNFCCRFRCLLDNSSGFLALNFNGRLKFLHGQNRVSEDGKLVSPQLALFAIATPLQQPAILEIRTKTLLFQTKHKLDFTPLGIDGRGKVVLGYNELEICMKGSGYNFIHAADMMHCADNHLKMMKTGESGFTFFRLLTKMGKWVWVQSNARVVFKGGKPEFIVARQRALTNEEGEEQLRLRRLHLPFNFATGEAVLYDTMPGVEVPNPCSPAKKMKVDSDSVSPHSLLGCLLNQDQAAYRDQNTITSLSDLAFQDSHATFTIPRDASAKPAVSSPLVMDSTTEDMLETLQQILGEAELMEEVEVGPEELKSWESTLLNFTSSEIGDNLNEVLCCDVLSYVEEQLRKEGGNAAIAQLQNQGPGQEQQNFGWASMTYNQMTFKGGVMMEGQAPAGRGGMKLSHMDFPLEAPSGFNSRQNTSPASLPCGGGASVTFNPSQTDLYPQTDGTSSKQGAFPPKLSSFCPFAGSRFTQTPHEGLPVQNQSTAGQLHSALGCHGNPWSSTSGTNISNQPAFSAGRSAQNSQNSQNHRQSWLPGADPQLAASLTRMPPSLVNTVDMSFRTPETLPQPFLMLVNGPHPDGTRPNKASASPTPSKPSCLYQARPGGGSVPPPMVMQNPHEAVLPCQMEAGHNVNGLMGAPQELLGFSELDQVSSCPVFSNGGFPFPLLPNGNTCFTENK
As to the kind of experiment: luciferase reporter transactivation. It counts as cell-based. For orientation: In a reporter assay the amount or activity of a reporter protein is the signal.

Molecules are shown by their SMILES.

Regarding `O=c1cc(-c2ccccc2)oc2ccc3ccccc3c12` [BNF], the 50% effective concentration (EC50) worked out at 19.4 ± 1.98 nM.

The EC50 is the concentration at which the effect is half-maximal.
